Results: ChEMBL document CHEMBL1201862, “PubChem BioAssay data set” (2004)
Active and inactive are the calls of the source.

Legend:
[1] = HEp-2 cell cytotoxicity, dose response, cytotoxicity control for RSV inhibitor project, HTS (AID 2410); assay type: functional; conditions: human respiratory syncytial virus
Cytochrome P450 2D6 = Cytochrome P450 2D6 (Homo sapiens, UniProt P10635);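 further: CYP2D6 member of a cytochrome P450 panel assay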
Cytochrome P450 2C9 = Cytochrome P450 2C9 (Homo sapiens, UniProt P11712)
Streptokinase A = molecular target: T1, Streptokinase A (Streptococcus pyogenes serotype M1, UniProt P10520); assay: S. pyogenes streptokinase expression inhibitors, potency, dose response, plasminogen activation absorbance, OD405 (AID 1914); assay type: functional, Streptococcus pyogenes M1 GAS;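 further: secreted streptokinase activity via plasminogen activation per viability signal from cell pellet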
T1 sequence (P10520 whole entry): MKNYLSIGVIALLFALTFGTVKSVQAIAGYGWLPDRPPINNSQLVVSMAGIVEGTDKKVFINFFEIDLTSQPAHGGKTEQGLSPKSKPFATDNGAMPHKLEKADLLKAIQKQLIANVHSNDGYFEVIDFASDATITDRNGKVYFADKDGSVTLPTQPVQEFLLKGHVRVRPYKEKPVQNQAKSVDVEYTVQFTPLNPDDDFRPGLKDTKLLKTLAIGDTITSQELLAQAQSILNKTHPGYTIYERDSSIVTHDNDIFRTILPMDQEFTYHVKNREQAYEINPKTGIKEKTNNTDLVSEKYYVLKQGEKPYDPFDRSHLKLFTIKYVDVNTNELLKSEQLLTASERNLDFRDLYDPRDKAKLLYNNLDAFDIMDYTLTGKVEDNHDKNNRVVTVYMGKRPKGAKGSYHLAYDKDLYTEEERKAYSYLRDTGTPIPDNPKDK

[2] = tested on: Streptococcus sp. 'group A'; assay: growth inhibition of control SK(-) GAS strain, dose response, counter-screen for streptokinase expression inhibitor project, luminescence, kanamycin, BacTiterGlo, confirmation (AID 1900); assay type: functional, organism-based
Streptococcus = assay: Group A Streptococcus viability loss, dose response, counter-screen for streptokinase expression inhibitor project, luminescence, BacTiterGlo (AID 1915); assay type: functional, organism-based;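 further: potency for reduction of bacterial viability or growth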
Protein RecA = molecular target: T2, Protein RecA (Mycobacterium tuberculosis, UniProt P9WHJ3); assay: Fluorescence Cell-Free Homogeneous Dose Retest to Identify Inhibitors of RecA-Intein Splicing Activity. [Related pubchem assays (depositor defined):AID2097, AID2223, AID489010, AID492950]; assay type: functional
T2 sequence (P9WHJ3 whole entry): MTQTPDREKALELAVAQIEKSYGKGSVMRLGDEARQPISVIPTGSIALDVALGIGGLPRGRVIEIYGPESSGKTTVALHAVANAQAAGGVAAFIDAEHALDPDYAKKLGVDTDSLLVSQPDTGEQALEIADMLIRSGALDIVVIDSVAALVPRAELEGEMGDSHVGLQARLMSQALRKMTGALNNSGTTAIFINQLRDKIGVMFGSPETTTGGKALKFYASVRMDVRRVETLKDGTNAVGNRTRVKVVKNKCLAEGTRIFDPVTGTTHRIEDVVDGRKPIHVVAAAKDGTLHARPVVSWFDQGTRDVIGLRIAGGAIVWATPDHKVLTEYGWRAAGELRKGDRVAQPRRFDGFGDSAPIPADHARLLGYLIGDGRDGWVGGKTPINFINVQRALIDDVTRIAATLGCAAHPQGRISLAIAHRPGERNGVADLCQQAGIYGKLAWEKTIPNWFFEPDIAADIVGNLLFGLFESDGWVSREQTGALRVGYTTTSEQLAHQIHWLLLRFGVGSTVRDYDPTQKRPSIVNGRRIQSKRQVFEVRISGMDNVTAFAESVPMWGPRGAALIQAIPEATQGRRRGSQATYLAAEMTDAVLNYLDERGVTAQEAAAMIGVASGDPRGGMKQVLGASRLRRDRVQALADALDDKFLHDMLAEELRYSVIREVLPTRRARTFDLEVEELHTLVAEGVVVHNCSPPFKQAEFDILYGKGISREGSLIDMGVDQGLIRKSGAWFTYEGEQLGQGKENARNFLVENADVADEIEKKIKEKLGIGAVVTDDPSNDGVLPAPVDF

[3] = molecular target: T3, Replicative DNA helicase DnaB (Mycobacterium tuberculosis, UniProt P9WMR3); assay: DnaB intein splicing inhibitors, dose response, biochemical, cell-free fluorescence (AID 449749); assay type: functional
T3 sequence (P9WMR3 whole entry): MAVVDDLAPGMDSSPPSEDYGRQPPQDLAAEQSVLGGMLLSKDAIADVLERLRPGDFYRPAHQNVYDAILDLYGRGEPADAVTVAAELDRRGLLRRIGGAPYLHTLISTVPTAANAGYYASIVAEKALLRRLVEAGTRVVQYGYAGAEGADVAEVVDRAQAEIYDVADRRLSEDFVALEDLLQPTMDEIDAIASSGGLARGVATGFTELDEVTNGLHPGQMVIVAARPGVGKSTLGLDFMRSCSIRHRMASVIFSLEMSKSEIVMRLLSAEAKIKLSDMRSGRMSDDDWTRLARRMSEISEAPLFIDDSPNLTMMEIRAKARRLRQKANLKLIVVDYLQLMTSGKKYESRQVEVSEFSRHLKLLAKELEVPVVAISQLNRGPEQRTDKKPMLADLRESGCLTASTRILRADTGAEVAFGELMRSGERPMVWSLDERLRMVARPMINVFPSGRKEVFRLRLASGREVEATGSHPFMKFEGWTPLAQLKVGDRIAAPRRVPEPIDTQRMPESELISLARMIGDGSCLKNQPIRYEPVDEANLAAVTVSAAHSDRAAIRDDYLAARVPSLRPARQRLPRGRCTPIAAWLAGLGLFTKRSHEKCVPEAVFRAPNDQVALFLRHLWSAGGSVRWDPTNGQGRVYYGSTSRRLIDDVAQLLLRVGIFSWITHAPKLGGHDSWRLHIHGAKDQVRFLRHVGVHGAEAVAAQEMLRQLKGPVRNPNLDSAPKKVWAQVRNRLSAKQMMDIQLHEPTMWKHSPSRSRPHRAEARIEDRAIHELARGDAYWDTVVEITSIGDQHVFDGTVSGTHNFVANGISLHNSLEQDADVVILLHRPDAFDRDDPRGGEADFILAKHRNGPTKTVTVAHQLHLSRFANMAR

[4] = molecular target: T4, Heat shock factor protein 1 (Mus musculus, UniProt P38532); assay: HSF1 potentiators in luciferase reporter cells, confirmation, cell-based, NIH3T3, luminescence, dose retest (AID 435004); assay type: functional;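 further: stress induced by proteasome inhibitor MG132 added 30 min after compound; luciferase reporter driven by HSF1 response element in NIH3T3 cells; actives raise luminescence as potentiators of the MG132 stress response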
T4 sequence (P38532 whole entry): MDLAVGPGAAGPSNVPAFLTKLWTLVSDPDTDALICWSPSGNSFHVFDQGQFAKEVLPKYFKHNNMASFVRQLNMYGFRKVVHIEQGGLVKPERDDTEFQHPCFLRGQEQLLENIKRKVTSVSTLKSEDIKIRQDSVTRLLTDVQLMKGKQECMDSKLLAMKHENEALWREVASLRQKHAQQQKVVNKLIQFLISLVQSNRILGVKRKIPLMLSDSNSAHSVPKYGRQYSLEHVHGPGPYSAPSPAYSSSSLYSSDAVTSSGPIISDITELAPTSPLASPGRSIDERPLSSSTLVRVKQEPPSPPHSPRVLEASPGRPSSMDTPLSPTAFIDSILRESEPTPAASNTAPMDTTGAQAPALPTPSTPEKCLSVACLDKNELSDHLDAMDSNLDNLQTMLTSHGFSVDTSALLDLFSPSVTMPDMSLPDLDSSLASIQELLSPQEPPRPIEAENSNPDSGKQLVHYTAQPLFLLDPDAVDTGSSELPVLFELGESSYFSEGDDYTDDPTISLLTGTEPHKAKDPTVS

[5] = molecular target: T5, Corticotropin-releasing factor receptor 2/Corticotropin-releasing factor-binding protein (Homo sapiens, UniProt P24387+Q13324); assay: activators of CRF receptor 2 with binding protein – uHTS hits, confirmation (AID 602473); assay type: functional; conditions: read-out: EC50_Mean
T5 sequence (Q13324 whole entry): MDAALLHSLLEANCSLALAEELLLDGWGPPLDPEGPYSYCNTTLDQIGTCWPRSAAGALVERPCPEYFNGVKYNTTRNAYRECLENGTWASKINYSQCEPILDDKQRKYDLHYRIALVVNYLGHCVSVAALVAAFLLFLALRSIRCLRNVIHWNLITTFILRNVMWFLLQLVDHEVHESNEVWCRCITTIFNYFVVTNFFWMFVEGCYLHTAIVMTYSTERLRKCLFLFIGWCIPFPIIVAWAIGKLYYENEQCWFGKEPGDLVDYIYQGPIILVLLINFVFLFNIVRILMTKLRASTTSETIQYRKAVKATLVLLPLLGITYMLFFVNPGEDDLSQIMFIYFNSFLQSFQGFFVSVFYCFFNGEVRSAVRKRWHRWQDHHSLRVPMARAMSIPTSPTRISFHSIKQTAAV
T5 sequence (P24387 whole entry): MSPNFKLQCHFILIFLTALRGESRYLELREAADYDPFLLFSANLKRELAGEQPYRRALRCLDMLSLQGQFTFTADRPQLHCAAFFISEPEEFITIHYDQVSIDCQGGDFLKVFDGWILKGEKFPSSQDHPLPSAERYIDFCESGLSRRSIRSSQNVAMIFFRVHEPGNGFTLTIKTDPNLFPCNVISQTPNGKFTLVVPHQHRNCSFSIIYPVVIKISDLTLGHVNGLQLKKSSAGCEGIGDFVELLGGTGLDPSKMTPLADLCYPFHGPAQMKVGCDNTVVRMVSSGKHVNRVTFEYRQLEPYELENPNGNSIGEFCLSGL

Cytochrome P450 2C9, sequence (P11712 whole entry): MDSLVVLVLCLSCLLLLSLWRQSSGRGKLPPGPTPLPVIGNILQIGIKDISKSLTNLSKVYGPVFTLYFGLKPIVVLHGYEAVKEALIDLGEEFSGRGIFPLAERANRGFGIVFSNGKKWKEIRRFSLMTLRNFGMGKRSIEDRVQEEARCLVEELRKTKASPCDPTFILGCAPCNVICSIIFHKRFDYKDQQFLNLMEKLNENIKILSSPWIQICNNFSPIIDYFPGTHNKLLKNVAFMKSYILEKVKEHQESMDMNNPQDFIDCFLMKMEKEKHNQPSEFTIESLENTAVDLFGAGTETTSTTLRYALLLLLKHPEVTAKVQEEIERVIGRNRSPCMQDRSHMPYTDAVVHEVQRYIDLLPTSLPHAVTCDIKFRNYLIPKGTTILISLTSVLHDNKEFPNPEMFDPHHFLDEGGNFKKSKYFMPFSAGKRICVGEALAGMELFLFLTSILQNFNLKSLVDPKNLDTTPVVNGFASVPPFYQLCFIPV
Cytochrome P450 2D6, sequence (P10635 whole entry): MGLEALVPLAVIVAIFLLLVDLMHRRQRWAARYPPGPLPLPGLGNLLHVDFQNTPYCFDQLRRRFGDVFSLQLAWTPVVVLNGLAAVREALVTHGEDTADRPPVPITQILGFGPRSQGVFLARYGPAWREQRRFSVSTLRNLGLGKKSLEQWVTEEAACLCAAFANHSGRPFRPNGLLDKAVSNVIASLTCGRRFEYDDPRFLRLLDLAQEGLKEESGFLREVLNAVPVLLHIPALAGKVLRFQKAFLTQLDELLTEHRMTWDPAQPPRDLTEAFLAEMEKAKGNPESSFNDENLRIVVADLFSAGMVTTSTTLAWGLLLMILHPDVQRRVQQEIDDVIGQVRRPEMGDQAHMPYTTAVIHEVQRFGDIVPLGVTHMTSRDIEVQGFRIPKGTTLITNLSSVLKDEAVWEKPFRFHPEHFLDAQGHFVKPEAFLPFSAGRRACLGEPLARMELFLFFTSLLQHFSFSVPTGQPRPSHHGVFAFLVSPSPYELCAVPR

Row | SMILES | CC50 [1] | EC50 (Protein RecA) | AC50 [3] | also measured
1 | Brc1ccc2c(c1)C(c1ccc(N3CCOCC3)cc1)=NNC(c1cccs1)=N2 | 32.1 µM (active) | – | – | –
2 | C/C(=N\Nc1cccc([N+](=O)[O-])c1)c1cc(F)ccc1O | > 50 µM (active) | – | – | –
3 | Cc1oc2cc(O)cc(C)c2c(=O)c1-c1cnn(-c2ccccc2)c1 | 15.6 µM (active) | – | – | –
4 | N[C@@H]1C[C@H]1c1ccccc1.N[C@H]1C[C@@H]1c1ccccc1 [TRANYLCYPROMINE] | – | – | – | AC50 (Cytochrome P450 2D6): 31.6 µM (inconclusive); AC50 (Cytochrome P450 2C9): 39.8 µM (inconclusive)
5 | COc1ccc(-c2oc3cccnc3c2C#CC2(O)CCCCC2)cc1 | – | – | – | EC50 (Streptokinase A): > 150 µM (not active); EC50 [2]: 7.18 µM (active); EC50 (Streptococcus): 11.1 µM (active)
6 | Cc1nc2ccc(S(=O)(=O)NC(CC(C)C)C(=O)O)cc2s1 (centres undefined) | – | – | – | AC50 (Cytochrome P450 2C9): 12.6 µM (inconclusive)
7 | COc1ccc(-c2[nH]nc3c2C(c2ccoc2)C(C#N)=C(N)O3)cc1 (centres undefined) | – | 0.548 µM (active) | 1.39 µM (active) | –
8 | O=C(Nc1cnc(O)nc1O)c1cccc(F)c1 | 18.6 µM (active) | – | – | –
9 | CCCc1n[nH]c2c1C(c1cc(OC)cc(OC)c1)C(C#N)=C(N)O2 (centres undefined) | – | 1.51 µM (active) | 1.27 µM (active) | –
10 | c1ccc2c(CSCc3cccc4ccccc34)cccc2c1 | – | – | – | AC50 (Cytochrome P450 2C9): 3.16 µM (inconclusive)
11 | O=C1C=C/C(=N/c2cccc3c(/N=C4\C=CC(=O)O4)cccc23)O1 | – | – | – | AC50 (Cytochrome P450 2C9): 6.31 µM (inconclusive)
12 | COC(=O)c1[nH]c2ccc(Br)cc2c1NC(=O)CN1CCCc2ccccc21 | 41.9 µM (active) | – | – | –
13 | CC(C)(C)C(=O)Nc1cccc(-c2cc(-c3c(Cl)cccc3Cl)no2)c1 | 12.9 µM (active) | – | – | EC50 [4]: > 260 µM (inactive)
14 | O=[N+]([O-])c1cc(C(F)(F)F)ccc1SCC(O)CO (centres undefined) | > 50 µM (active) | – | – | –
15 | Cc1noc(C)c1COC(=O)CCN1c2ccccc2Sc2ccccc21 | 37.9 µM (active) | – | – | –
16 | O=C(N/C=C/c1ccccc1)Nc1ccc(Cl)cc1 | 20.8 µM (active) | – | – | –
17 | CCCc1n[nH]c2c1C(c1ccsc1)C(C#N)=C(N)O2 (centres undefined) | – | 2.28 µM (active) | 16.5 µM (active) | –
18 | COc1ccc(N(C)C(=O)c2cc3c(s2)-c2c(C)cccc2OC3)c(OC)c1 | 19.6 µM (active) | 133 µM (inconclusive) | 74.5 µM (active) | –
19 | Cc1[nH]n(-c2ccccc2)c(=O)c1C=C1C(=O)NC(=O)NC1=O | – | 7.39 µM (active) | 16.8 µM (active) | –
20 | CC(=O)Oc1ccc(N(C(C)=O)S(=O)(=O)c2ccc3ccccc3c2)cc1Br | – | 17.3 µM (active) | 9.4 µM (active) | –
21 | N#CC1=C(N)N(c2ccccc2)C(c2cccc([N+](=O)[O-])c2)C1(C#N)C#N (centres undefined) | – | 12.8 µM (active) | 5.73 µM (active) | –
22 | COc1cc(Cn2nnc3ccccc32)cc(Br)c1O | 23.2 µM (active) | – | – | –
23 | CCOc1ccc(S(=O)(=O)N2CCN(c3ccccc3)CC2)c2cccnc12 | 30.9 µM (active) | – | – | –
24 | Cc1ccc(S(=O)(=O)Oc2ccc(C(c3c(C)n[nH]c3O)c3c(C)n[nH]c3O)cc2)cc1 | – | 46.2 µM (active) | 7.06 µM (active) | EC50 [5]: > 53 µM (inactive)
25 | O=C(c1ccc2nc(Cc3cccc(Cl)c3)oc2c1)N1CCC(O)CC1 | – | > 380 µM (inactive) | 357 µM (active) | –
26 | Cc1ccc(NC(=O)c2sc3ncnc(N4CCN(c5ccccn5)CC4)c3c2C)c(C)c1 | – | > 380 µM (inactive) | 15.7 µM (active) | –
27 | O=C1/C(=C/c2ccc3c(c2)OCO3)CCC/C1=C\c1ccc2c(c1)OCO2 | – | > 380 µM (inactive) | > 380 µM (inactive) | –
